Patent US12576099B2, “Ribose-modified cap analog and use thereof” (Beijing Youcare Kechuang Pharmaceutical Technology Co., Ltd., priority 2024, dated 2026)

Experiments:
BALB/C mice = test: In vivo imaging of Fluc-mRNA LNP expression in mice; settings: for Total radiation intensity: 5 μg Fluc-mRNA LNP intramuscular, mice
Procedure, shortened: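 Luciferase expression was imaged by IVIS as total radiation intensity, 5 min after intraperitoneal substrate, at 6, 12, 24, 48, 96 and 168 h. Dosing was intramuscular LNP with 5 μg cap analog Fluc-mRNA in female BALB/C mice; results are fold versus the m6A group.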

T7 RNA polymerase = T7 RNA polymerase (Escherichia phage T7, UniProt P00573); test: In vitro transcription yield of mRNA using cap analogs; format: biochemical; settings: for Yield per unit template: in vitro transcription, 1 μg DNA template, 37° C., 2 hours
Sequence of T7 RNA polymerase (P00573 whole entry): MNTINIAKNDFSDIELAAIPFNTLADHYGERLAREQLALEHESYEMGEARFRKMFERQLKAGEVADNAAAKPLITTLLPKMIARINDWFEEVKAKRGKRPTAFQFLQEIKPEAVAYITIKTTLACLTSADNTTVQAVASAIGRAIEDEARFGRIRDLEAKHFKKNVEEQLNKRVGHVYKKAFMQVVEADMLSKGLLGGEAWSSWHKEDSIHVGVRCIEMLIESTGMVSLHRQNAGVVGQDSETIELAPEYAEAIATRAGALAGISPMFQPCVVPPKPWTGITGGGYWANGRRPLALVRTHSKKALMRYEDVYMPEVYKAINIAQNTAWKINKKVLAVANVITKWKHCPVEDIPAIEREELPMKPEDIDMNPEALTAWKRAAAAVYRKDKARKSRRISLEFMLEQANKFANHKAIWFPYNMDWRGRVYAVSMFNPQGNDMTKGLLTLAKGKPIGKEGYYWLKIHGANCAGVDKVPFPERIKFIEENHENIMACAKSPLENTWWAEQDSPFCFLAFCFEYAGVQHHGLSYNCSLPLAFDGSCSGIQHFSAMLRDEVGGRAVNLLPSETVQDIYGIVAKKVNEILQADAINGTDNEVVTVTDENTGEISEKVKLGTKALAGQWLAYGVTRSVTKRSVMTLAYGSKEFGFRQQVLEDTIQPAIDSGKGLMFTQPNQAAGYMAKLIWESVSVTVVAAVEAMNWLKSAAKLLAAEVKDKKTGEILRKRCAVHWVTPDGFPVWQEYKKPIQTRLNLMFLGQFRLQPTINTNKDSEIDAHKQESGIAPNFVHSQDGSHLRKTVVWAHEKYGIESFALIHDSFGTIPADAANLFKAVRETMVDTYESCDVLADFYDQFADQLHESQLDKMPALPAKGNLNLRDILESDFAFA
Procedure, shortened: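 Linearized plasmid template transcribed by T7 RNA polymerase with NTPs, cap analog, nuclease inhibitor and inorganic pyrophosphatase for 2 h at 37° C., then DNase I 30 min at 37° C. mRNA was ethanol-washed, redissolved and purified, and yield recorded.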

[1] = Characterization of lipid nanoparticles encapsulating Fluc-mRNA prepared from different cap structures; format: physicochemical; settings: for Particle size: LNP (YK-009/DSPC/cholesterol/DMG-PEG2000) with Fluc-mRNA transcribed using the named cap analog; for PDI: LNP with Fluc-mRNA transcribed using the named cap analog; for EE: encapsulation efficiency of LNP with Fluc-mRNA transcribed using the named cap analog
Procedure, shortened: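 LNPs of YK-009/DSPC/cholesterol/DMG-PEG2000 (49:10:39.5:1.5) made by microfluidic mixing with Fluc-mRNA in 50 mM citrate pH 4, lipid:mRNA ~15:1 w/w, then ultrafiltered into PBS and 0.2 μm filtered. Size and PDI by DLS (90°, 25 °C, triplicate); encapsulation efficiency by RiboGreen assay.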

DCP2 enzyme = target: T1, DCP2 enzyme (Schizosaccharomyces pombe, UniProt O13828); test: Decapping enzyme stability test; format: biochemical; settings: for Decapping rate (%) of DCP2 enzyme: 50 U mRNA decapping enzyme, 37° C., 45 minutes
T1 construct: purchased New England Biolabs
T1 sequence (O13828 1-243 limits assumed): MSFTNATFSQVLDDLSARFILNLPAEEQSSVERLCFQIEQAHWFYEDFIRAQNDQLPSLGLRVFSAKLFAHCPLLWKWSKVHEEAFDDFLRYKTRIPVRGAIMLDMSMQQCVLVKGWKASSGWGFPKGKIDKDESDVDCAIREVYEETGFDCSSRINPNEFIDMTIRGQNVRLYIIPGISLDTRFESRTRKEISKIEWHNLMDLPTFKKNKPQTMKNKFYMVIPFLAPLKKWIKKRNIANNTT
T1 sequence (Q9P805 1-127 partner): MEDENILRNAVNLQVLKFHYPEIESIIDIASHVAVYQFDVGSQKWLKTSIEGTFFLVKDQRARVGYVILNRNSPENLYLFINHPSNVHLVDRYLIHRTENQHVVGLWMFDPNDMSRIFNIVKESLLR
T1 sequence (Q10108 155-180 partner limits assumed): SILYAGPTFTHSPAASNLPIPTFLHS
Procedure, shortened: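 PAGE-purified RNA ([…]) incubated with 50 U mRNA decapping enzyme in 1×MDE buffer at 37° C. for 45 minutes. Products resolved by PAGE, SYBR Green II stained; decapping rate derived from capped-to-decapped band intensity ratio.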

SMILES	Multiple of total radiation intensity relative to m6A (BALB/C mice; 6 h)	Total radiation intensity (BALB/C mice; 6 h)	Multiple of total radiation intensity relative to m6A (BALB/C mice; 12 h)	Total radiation intensity (BALB/C mice; 12 h)	Multiple of total radiation intensity relative to m6A (BALB/C mice; 24 h)	Total radiation intensity (BALB/C mice; 24 h)	Multiple of total radiation intensity relative to m6A (BALB/C mice; 48 h)	Total radiation intensity (BALB/C mice; 48 h)	Multiple of total radiation intensity relative to m6A (BALB/C mice; 96 h)	Total radiation intensity (BALB/C mice; 96 h)	Total radiation intensity (BALB/C mice; 168 h)	Yield per unit template (T7 RNA polymerase) [µg]	Increase relative to 5227 (in vitro transcription yield) (T7 RNA polymerase) [%]	Particle size [1] [nm]	PDI [1]	EE [1] [%]	Decapping rate (%) of DCP2 enzyme (DCP2 enzyme) [%]	Decrease relative to N-7113 (decapping rate) (DCP2 enzyme) [%]	also measured
COC(C)[C@H]1[C@@H](O)[C@H]([n+]2cn(C)c3c(=O)[nH]c(N)nc32)O[C@@H]1COP(=O)(O)OP(=O)(O)OP(=O)(O)OC[C@H]1O[C@@H](n2cnc3c(N)ncnc32)[C@H](OC)[C@@H]1OP(=O)(O)OC[C@H]1O[C@@H](n2cnc3c(=O)[nH]c(N)nc32)[C@H](O)[C@@H]1O (some centres unmarked) [YK-CAP-107]	3.4	8.09 ×108 p/s	3.2	6.87 ×108 p/s	2.9	1.92 ×108 p/s	1.2	0.60 ×108 p/s	2.5	0.11 ×108 p/s	0.03 ×108 p/s	170.7	27.2	78.42	0.053	96.3	11.5	32.3	–
COC[C@]1(COP(=O)(O)OP(=O)(O)OP(=O)(O)OC[C@H]2O[C@@H](n3cnc4c(N)ncnc43)[C@H](OC)[C@@H]2OP(=O)(O)OC[C@H]2O[C@@H](n3cnc4c(=O)[nH]c(N)nc43)[C@H](O)[C@@H]2O)O[C@@H]([n+]2cn(C)c3c(=O)[nH]c(N)nc32)[C@H](O)[C@@H]1O [YK-CAP-117]	3.8	8.99 ×108 p/s	3.8	8.00 ×108 p/s	3.2	2.08 ×108 p/s	3.3	1.73 ×108 p/s	0.9	0.35 ×108 p/s	0.02 ×108 p/s	153.2	14.2	72.56	0.044	94.3	9.8	34.0	Decapping rate lower than that of HN3002 (DCP2 enzyme; relative to HN3002): 13.5%; Decapping rate lower than that of YK-CAP-101 (DCP2 enzyme; relative to YK-CAP-101): 22.6%; Decapping rate lower than that of YK-CAP-102 (DCP2 enzyme; relative to YK-CAP-102): 31.4%; Decapping rate lower than that of YK-CAP-103 (DCP2 enzyme; relative to YK-CAP-103): 26.7%; Decapping rate lower than that of YK-CAP-104 (DCP2 enzyme; relative to YK-CAP-104): 36.3%; Decapping rate lower than that of YK-CAP-105 (DCP2 enzyme; relative to YK-CAP-105): 24.1%; Decapping rate lower than that of compound 14 (DCP2 enzyme; relative to compound 14): 17.0%; Decapping rate lower than that of m6A (DCP2 enzyme; relative to m6A): 24.0%
